Results taken from ChEMBL document CHEMBL1152037, “Novel peptidomimetics: inhibitors of substance P endopeptidase” (Bioorg Med Chem Lett, 1992).
Peptide text beside a SMILES is read from it. * marks the point of attachment. X1 = CSCC[C@H](NC(=O)[C@H](CC(C)C)NC(=O)CNC(=O)C(/C=C/[C@H](Cc1ccccc1)N*)(Cc1ccccc1)Cc1ccccc1)C(N)=O

Legend:
[1] = Ability to inhibit substance P endopeptidase at concentration of 1.5 uM
[2] = Ability to inhibit substance P endopeptidase at concentration of 10 uM

**Q.** Which inhibition [1] does the source give for N[C@H](/C=C/C(CO)(Cc1ccccc1)Cc1ccccc1)Cc1ccccc1 here?
**A.** 50%

**Q.** Which inhibition [2] does the source give for CSCC[C@H](NC(=O)[C@H](CC(C)C)NC(=O)CNC(=O)C(/C=C/[C@H](Cc1ccccc1)NC(=O)[C@H](CCC(N)=O)NC(=O)[C@H](CCC(N)=O)NC(=O)[C@@H]1CCCN1C(=O)[C@H](CCCCN)NC(=O)[C@@H]1CCCN1C(=O)[C@@H](N)CCCN=C(N)N)(Cc1ccccc1)Cc1ccccc1)C(N)=O (H-RPKPQQ-X1) here?
**A.** 50%
